Experimental data reported in patent publication US5306482A, “Radiopharmaceutical bacteriostats” (priority 1992, dated 1994).

Experiments:
[1] = Radiolabelling test of benzalkonium chloride (BAC) with sodium pertechnetate 99mTc in the presence of PABA (ITLC-SG radiochromatography, physical appearance); format: physicochemical; conditions: for effect on PABA / its anti-oxidant properties / physical appearance (precipitate): MDP/PABA kit
Protocol: A preliminary radiolabelling test of benzalkonium chloride (BAC) with sodium pertechnetate ^99m Tc in the presence of para-aminobenzoic acid (PABA) was conducted.
(§1) Three vials with a total volume of 10 ml from a recently manufactured methylene diphosphonic acid (MDP) kit containing PABA were treated with various amounts of benzalkonium chloride, i.e., 1, 5 and 10 mg which corresponded to 0.01, 0.05 and 0.10% solutions. Radiochromatography was performed using ITLC-SG strips developed in acetone and saline. The vials were tested at 5 and 24 hours post reconstitution. At these two periods, less than 1% free pertechnetate and reduced hydrolyzed technetium was found in the three vials.

[2] = IDP/PABA/BAC and IDP/PABA/BAC/PSB stress test (radiochromatography); format: physicochemical; conditions: 500 mCi pertechnetate 99mTc
Protocol: as §1
(§2) Two vials of IDP/PABA/BAC were reconstituted with 500 mCi of pertechnetate ^99m Tc in 10 mL of normal saline and 7 ml of the solution was removed 20 minutes later, The solutions were kept at room temperature for the length of the test. The radiochromatography tests as described in Example 1 were performed at less than 30 minutes and at 7 and 24 hours post reconstitution (PR):
as §2, with “of IDP/PABA/BAC/PSB” for “of IDP/PABA/BAC”, “minutes later.” for “minutes later,”, “30 min” for “30 minutes”, “(PR): […]” for “(PR):”

[3] = Accelerated stability study of MDP/PABA/BAC; format: physicochemical
Protocol: The formulations were examined in an accelerated stability study which was conducted according to FDA guidelines.

[4] = MDP/PABA/BAC radiochemical stress test (Example 3); format: physicochemical; conditions: before filtration; pH 7.0; 50 μg BAC
Protocol: A radiochemical "stress test" was also performed on three vials of MDP/PABA/BAC. A "non-stressed" vial was tested simultaneously as a control.
Four vials of the lyophilized product were labelled with ^99m Tc-sodium pertechnetate. Each received 500 mCi in 10 mL of technetium from a recent elution. For the first three vials, twenty minutes after reconstitution, 7 mL were removed. The fourth vial remained untouched. The vials were kept at room temperature throughout the length of the experiment.
The radiochemical tests were performed at 0.5, 6.0 and 24 hours post reconstitution.

[5] = test system: concentrated dust culture; test: Bacteriostatic effect of BAC in MDP/PABA - viability check; format: cell-based, wild strains of bacteria and fungi
Protocol: (§3) A test of the bacteriostatic effects of various concentrations of benzalkonium chloride in MDP/PABA was conducted. A total of fourteen vials, two each of the six concentrations of benzalkonium chloride in MDP/PABA and two control MDP/PABA vials were utilized. A dilute source of microorganisms was prepared by adding 3 drops of a "dust culture" (which was a mixed culture derived from dust and comprised a variety of wild strains of bacteria and fungi typical to ambient conditions) to 1 liter of sterile water for injection. After sufficient agitation, three drops of the dilute culture were added to one vial of each concentration, including one zero vial, and all fourteen vials were left to incubate overnight (approx. 18 hours) at room temperature. One tube (15 mi) of Fluid Thioglycollate medium and one tube (15 mi) of Tryptic Soy medium was inoculated with 1 milliliter from each of the fourteen incubated vials. Each tube was incubated for fourteen days.

[6] = MDP/PABA compared with MDP/PABA/BAC - biodistribution; format: in vivo; conditions: rat
Protocol: A lyophilized batch of MDP/PABA formulated with benzalkonium chloride (MDP/PABA/BAC) was prepared and tested. The bacterial preservative was added prior to freeze-drying. No special precaution was taken in order to avoid excessive air oxidation of the tin.
A side by side study of biodistribution of the two formulations with and without benzalkonium chloride was conducted.
Each lyophilized vial contained 10 mg of MDP, 1 mg of stannous chloride dehydrate, 2 mg of PABA and 50 μg of benzalkonium chloride (BAC). The pH was adjusted to 7.0. […] The haze was filtered off to give a clear solution.
The dosage was 83 μg MDP per rat (130-150 g). Tissue distribution was monitored at 20 minutes, 1 hour, 2 hours, 6 hours and 24 hours post-reconstitution (PR).

[7] = MDP/PABA/BAC formulation - radiochemical stress test; format: physicochemical
Protocol: Four batches of MDP/PABA/BAC kits were prepared, lyophilized, and tested. The formulations were as follows: […]
One vial from each batch was reconstituted with 500 mCi ^99m Tc-sodium pertechnetate in 10 mL. Twenty minutes later, 7 mL were removed. The vials were left at room temperature for the duration of the test.

[8] = test system: bacterial, fungal and mold growth; test: Microbiological test according to USP XXI (Example 15) - overall; format: cell-based
Protocol: (§4) A microbiological test was conducted according to USP XXI.
Radiopharmaceutical kits employing MDP (methylene diphosphonic acid), IDP(iminodiphosphonic acid) or DTPA(diethylene-triamine-pentacetic acid) and benzylalkonium chloride (BAC), and optionally polymyxin sulfate B (PSB) were prepared, reconstituted and inoculated utilizing standard procedures.

[9] = test system: bacterial, fungal and mold growth; test: Microbiological test according to USP XXI - overall; format: cell-based; conditions: 10 or 25 μg BAC in a volume of 10 ml
Protocol: as §4

[10] = MDP/PABA formulated with benzalkonium chloride - stress test (radiochromatography); format: physicochemical; conditions: 10 mg BAC added with 500 mCi pertechnetate 99mTc
Protocol: Four vials of MDP/PABA were reconstituted with 500 mCi of pertechnetate ^99m Tc in 9 mL of normal saline. Immediately to two vials were added 1 mg/1 mL (0.01%) of benzalkonium chloride solution. Similarly, to the remaining two vials we added 10 mg/1 mL (0.1%).

dust culture = test: Bacteriostatic effect of BAC in MDP/PABA - sterility test; format: cell-based, wild strains of bacteria and fungi
Protocol: as §3

[11] = MDP/PABA kit vials with 1, 5 and 10 mg BAC (0.01, 0.05, 0.10%), 5 and 24 hours post reconstitution

CC(C)(C)CC(C)(C)c1ccc(OCCOCC[N+](C)(C)Cc2ccccc2)cc1 [benzethonium chloride]
effect on PABA / its anti-oxidant properties [1]: did not interfere with the anti-oxidant properties of PABA
physical appearance (precipitate) [1]: caused the phosphonate to precipitate giving a cloudy solution

N-alkylbenzyldimethylammonium chloride and/or N-dialkylbenzylmethylammonium chloride [benzalkonium chloride]
effect on stability of the product [2]: did not affect the stability of the product
effect on shelf life of unreconstituted products [3]: does not diminish the shelf life of unreconstituted products
haze on addition to the final solution [4]: a slight haze appeared
effect on PABA / its anti-oxidant properties [1]: did not have a deteriorating effect on PABA
physical appearance (precipitate) [1]: no precipitate was observed
free pertechnetate [1, 11]: less than 1%
reduced hydrolyzed technetium [1, 11]: less than 1%
effect on PABA / its anti-oxidant properties ([1]; listed as BAC): does not interfere with the anti-oxidant properties of PABA
Viability check: date growth observed ([5]; 50 μg BAC, control, SOY): 2/2
Viability check: date growth observed ([5]; 50 μg BAC, control, THIO.): 2/1
Viability check: date growth observed ([5]; 50 μg BAC, innoc., SOY): 2/2
Viability check: date growth observed ([5]; 50 μg BAC, innoc., THIO.): 2/1
Viability check: date growth observed ([5]; 100 μg BAC, control, SOY): 2/2
Viability check: date growth observed ([5]; 100 μg BAC, control, THIO.): 2/1
Viability check: date growth observed ([5]; 100 μg BAC, innoc., SOY): 2/6
Viability check: date growth observed ([5]; 100 μg BAC, innoc., THIO.): 2/1
effect in viability test ([5]; 250 μg BAC per vial and over): beneficial effect of the benzalkonium chloride was evident
Viability check: date growth observed ([5]; 250 μg BAC, control, SOY): NEG.
Viability check: date growth observed ([5]; 250 μg BAC, control, THIO.): NEG.
Viability check: date growth observed ([5]; 250 μg BAC, innoc., SOY): NEG.
Viability check: date growth observed ([5]; 250 μg BAC, innoc., THIO.): NEG.
Viability check: date growth observed ([5]; 1000 μg BAC, control, SOY): NEG.
Viability check: date growth observed ([5]; 1000 μg BAC, control, THIO.): NEG.
Viability check: date growth observed ([5]; 1000 μg BAC, innoc., SOY): NEG.
Viability check: date growth observed ([5]; 1000 μg BAC, innoc., THIO.): NEG.
biodistribution of the radiopharmaceutical upon addition of BAC [6]: not altered
effect on reducing capacity of stannous chloride [7]: neither improved nor diminished the reducing capacity of stannous chloride
bacteriostasis ([8]; 25 μg BAC and optionally 25 μg polymyxin B in 10 ml): effective bacteriostasis
bacteriostasis [9]: effective bacteriostasis
effect on stability of the product [10]: did not affect the stability of the product
Sterility test (growth) (dust culture; 10 μg BAC per vial, control (not inoculated), SOY): NEG.
Sterility test (growth) (dust culture; 10 μg BAC per vial, control (not inoculated), THIO.): NEG.
Sterility test (growth) (dust culture; 10 μg BAC per vial, inoculated, SOY): POS.
Sterility test (growth) (dust culture; 10 μg BAC per vial, inoculated, THIO.): POS.
growth in both media (dust culture; 10 μg and 25 μg BAC per vial): Growth was observed in both media
Sterility test (growth) (dust culture; 25 μg BAC per vial, control (not inoculated), SOY): NEG.
Sterility test (growth) (dust culture; 25 μg BAC per vial, control (not inoculated), THIO.): NEG.
Sterility test (growth) (dust culture; 25 μg BAC per vial, inoculated, SOY): POS.
Sterility test (growth) (dust culture; 25 μg BAC per vial, inoculated, THIO.): POS.
Sterility test (growth) (dust culture; 50 μg BAC per vial, control (not inoculated), SOY): NEG.
Sterility test (growth) (dust culture; 50 μg BAC per vial, control (not inoculated), THIO.): NEG.
Sterility test (growth) (dust culture; 50 μg BAC per vial, inoculated, SOY): NEG.
Sterility test (growth) (dust culture; 50 μg BAC per vial, inoculated, THIO.): NEG.
Sterility test (growth) (dust culture; 100 μg BAC per vial, control (not inoculated), SOY): NEG.
Sterility test (growth) (dust culture; 100 μg BAC per vial, control (not inoculated), THIO.): NEG.
Sterility test (growth) (dust culture; 100 μg BAC per vial, inoculated, SOY): NEG.
Sterility test (growth) (dust culture; 100 μg BAC per vial, inoculated, THIO.): NEG.
Sterility test (growth) (dust culture; 250 μg BAC per vial, control (not inoculated), SOY): NEG.
Sterility test (growth) (dust culture; 250 μg BAC per vial, control (not inoculated), THIO.): NEG.
Sterility test (growth) (dust culture; 250 μg BAC per vial, inoculated, SOY): NEG.
Sterility test (growth) (dust culture; 250 μg BAC per vial, inoculated, THIO.): NEG.
Sterility test (growth) (dust culture; 1000 μg BAC per vial, control (not inoculated), SOY): NEG.
Sterility test (growth) (dust culture; 1000 μg BAC per vial, control (not inoculated), THIO.): NEG.
Sterility test (growth) (dust culture; 1000 μg BAC per vial, inoculated, SOY): NEG.
Sterility test (growth) (dust culture; 1000 μg BAC per vial, inoculated, THIO.): NEG.
growth (dust culture; greater than 25 μg BAC per vial): no growth

polymyxin B
protection against Gram Negative bacteria ([8]; addition to BAC): additional protection against Gram Negative bacteria
